According to publication PMC10096175, “An In Vitro Antimicrobial, Anticancer and Antioxidant Activity of N–[(2–Arylmethylthio)phenylsulfonyl]cinnamamide Derivatives” (Molecules, 2023):
Converted amounts (≈) assume the structure as drawn. Like-named read-outs stand apart in the source and are kept apart here.

Assays:
S. aureus ATCC 6538 = test: MIC determination, reference strain (microdilution); type: cell-based; details: Staphylococcus aureus, ATCC6538; S. aureus ATCC 6538; ± SD; Co-trimoxazole as sulfamethoxazole/trimethoprim; read-out: MIC
[1] = test system: S. epidermidis ATCC 14990; test: as above; type: cell-based; details: Staphylococcus epidermidis, ATCC14990; S. epidermidis ATCC 14990; Co-trimoxazole as sulfamethoxazole/trimethoprim; read-out: MIC
E. hirae ATCC 10541 = test: as above; type: cell-based; details: Enterococcus hirae, ATCC10541; E. hirae ATCC 10541; Co-trimoxazole as sulfamethoxazole/trimethoprim; read-out: MIC
E. faecalis ATCC 51299 = test: as above; type: cell-based; details: Enterococcus faecalis, ATCC51299; E. faecalis ATCC 51299; Co-trimoxazole as sulfamethoxazole/trimethoprim; read-out: MIC
B. subtilis ATCC 6633 = test: as above; type: cell-based; details: Bacillus subtilis, ATCC6633; B. subtilis ATCC 6633; Co-trimoxazole as sulfamethoxazole/trimethoprim; read-out: MIC
C. diphtheriae = test: as above; type: cell-based; details: Corynebacterium diphtheriae; C. diphtheriae; Co-trimoxazole as sulfamethoxazole/trimethoprim; read-out: MIC
C. albicans ATCC 10231 = test: MIC determination, reference fungal strain (microdilution); type: cell-based; details: Candida albicans, ATCC10231; C. albicans ATCC 10231; read-out: MIC
E. coli ATCC 8739 = test: MIC determination, reference strain (microdilution); type: cell-based; details: Escherichia coli, ATCC8739; E. coli ATCC 8739; Co-trimoxazole as sulfamethoxazole/trimethoprim; read-out: MIC
[2] = test system: Staphylococcus sp. and Enterococcus sp.; test: MIC, summary statements on reference Gram-positive cocci; type: cell-based; details: Staphylococcus and Enterococcus species, reference Gram-positive cocci (range over strains)
Experimental: Sterile sheep blood defibrinated (GrasoBiotech). Co-trimoxazole (composition sulfamethoxazole 400 mg/trimethoprim 80 mg; WZF Polfa Poland). Ketoconazole (WZF Polfa Poland). Bacteria: Enterococcus hirae ATCC 10541 and Enterococcus faecalis ATCC 51299, Staphylococcus epidermidis ATCC 14990, Staphylococcus aureus ATCC 6538, clinical strains Staphylococcus aureus MRSA, clinical strains Staphylococcus sp. (MRCNS), clinical strain Staphylococcus epidermidis MRSE, clinical strain Enterococcus sp., Corynebacterium diphtheriae ZMF, Bacillus subtilis ATCC 6633, Escherichia coli ATCC 8739, Candida albicans ATCC 10231. Brain-heart infusion broth (BHI, Becton Dickinson) for Enterococcus hirae ATCC 10541 and Enterococcus faecalis ATCC 51299, BHI supplement with 10% bovine serum for Bacillus subtilis, Corynebacterium diphtheriae ZMF, Staphylococcus epidermidis ATCC 14990, Staphylococcus aureus ATCC 6538, clinical strains Staphylococcus aureus MRSA, clinical strains Staphylococcus sp. (CNS), clinical strain Staphylococcus epidermidis MRSE grew in Mueller-Hinton broth (MH cation-adjusted, Becton Dickinson) in an aerobic atmosphere at 37 °C for 48 h, in an aerobic atmosphere at 37 °C for 72 h. Candida albicans grew in Sabourauda broth (Sb, Becton Dickinson), in an aerobic atmosphere at 37 °C for 72 h. After determination of the bacterial viability, BHI blood agar plates, MH agar plates, and Sb agar plates were used.
The MIC determination for the reference and clinical strains was performed based on the methodology described by Kula et al.. The dry test samples were dissolved in dimethyl sulfoxide (DMSO) and diluted in water, resulting in a finale concentration of about 500 µg/mL. These solutions were diluted and added to the first well of each microtiter line. Dilution in geometric progression was done by transferring the mixture/dilution (100 μL) from the first to the twelfth well. An aliquot (100 μL) was discarded from the twelfth well. The final concentration of the samples used in the antimicrobial activity assay ranged from 125 to 0.006 µg/mL. Co-trimoxazole (for bacteria), with the composition sulfamethoxazole 400 mg/trimethoprim 80 mg was used as a reference compound in the concentration range of 20 000/4000 to 1/0.2 µg/mL. Ketoconazole (for fungi) was used as a reference compound in the concentration range of 125 to 0.006 µg/mL. Tests were incubated in adequate conditions described by Kula et al.. Diluent concentration had no effect on the activity of the tested compounds. All experiments were carried out three times.

HeLa cells = test: MTT assay; type: cell-based, human; details: for IC50: HeLa, MTT, 24 h treatment; for Selectivity index (SI): IC50 HEK-293 / IC50 HeLa
SKOV-3 cells = test: MTT assay; type: cell-based, human; details: for IC50: Homo sapiens, SK-OV-3, SKOV-3, MTT, 24 h treatment, read-out: IC50; for Selectivity index (SI): IC50 HEK-293 / IC50 SKOV-3
MCF-7 cells = test: MTT assay; type: cell-based, human; details: for IC50: Homo sapiens, MCF7, MCF-7, MTT, 24 h treatment, read-out: IC50; for Selectivity index (SI): IC50 HEK-293 / IC50 MCF-7
HEK-293 cells = test: MTT assay, noncancerous cells; type: cell-based; details: Homo sapiens, HEK293; HEK-293; MTT, 24 h treatment; read-out: IC50
DPPH assay = details: DPPH radical scavenging; 40 min, room temperature
Experimental: The DPPH assay was performed spectrophotometrically. The amount of 30 µL of different concentrations of samples, dissolved in methanol/DMSO (9/1 v/v), was mixed with 170 µL of 0.06 mM DPPH methanolic solution and completed with methanol to a final volume of 300 µL. DPPH methanolic solution with methanol/DMSO (9/1 v/v) was used as a control. After 40 min of incubation at room temperature in the dark, the absorbance was analyzed at λ = 510 nm by a 96-well microplate reader (Epoch, BioTek System, Santa Clara, CA, USA). Ascorbic acid was used as a standard.
DPPH inhibition was calculated by the following equation:DPPH Inhibition (%) = [Acontrol − Asample)/Acontrol] × 100%
(§1) IC50 values of the samples were calculated using program GraFit v. 7.0 (Erithacus Software). The analysis was performed three times, with tree replications in each (n = 9). Statistical analysis was performed with one-way ANOVA with Tuckey’s post-hoc test.

ABTS assay = details: ABTS radical scavenging; 10 min, 30 °C
Experimental: The ABTS assay was performed spectrophotometrically. […] ABTS solution with methanol/DMSO (9/1 v/v) was used as a control. After 10 min of incubation at 30 °C in the dark, the absorbance was analyzed at λ = 750 nm by a 96-well microplate reader (Epoch, BioTek System, Santa Clara, CA, USA). Ascorbic acid was used as a standard.
ABTS inhibition was calculated by the following equation:ABTS Inhibition (%) = [Acontrol − Asample)/Acontrol] × 100%
as §1

in vitro = details: sheep, defibrinated sheep blood diluted 1:9 v/v with PBS, pH 7
[3] = test system: cancer cells (HeLa, SKOV-3, MCF-7); test: MTT assay, summary statements on the cancer cells; type: cell-based; details: Homo sapiens, cell line not specified
[4] = test system: clinical methicillin-resistant S. aureus (MRSA) strains; test: MIC on clinical MRSA strains; type: cell-based; details: Staphylococcus aureus, MRSA / VISA; strains MRSA12673, MRSA21804, MRSA18532, MRSA12647 and MRSAN315 VISA
Description: In the next step, we evaluated the compounds on clinical methicillin-resistant S. aureus (MRSA) strains (Figure 2) and methicillin-resistant coagulase-negative Staphylococcus (MRCNS) (Figure 3). The group of CNS includes nonpathogenic or opportunistic pathogens, while coagulase-positive staphylococci are represented by S. aureus. About 30% of the human population carries S. aureus in the upper respiratory tract. Infections caused by S. aureus include all purulent skin conditions (boils, abscesses, folliculitis) and nosocomial infections. The strains isolated from hospitals are usually antibiotic-resistant, where MRSA strains are the majority. Staphylococcus epidermidis (like other coagulase-negative Staphylococcus) is included in the microflora of human skin and can easily cause surface contamination after surgical procedures.
Sterile sheep blood defibrinated (GrasoBiotech). Co-trimoxazole (composition sulfamethoxazole 400 mg/trimethoprim 80 mg; WZF Polfa Poland). Ketoconazole (WZF Polfa Poland). Bacteria: Enterococcus hirae ATCC 10541 and Enterococcus faecalis ATCC 51299, Staphylococcus epidermidis ATCC 14990, Staphylococcus aureus ATCC 6538, clinical strains Staphylococcus aureus MRSA, clinical strains Staphylococcus sp. […]

[5] = Homo sapiens, 24 h, read-out: IC50

Compound	MIC (S. aureus ATCC 6538) [µg/mL]	MIC [1] [µg/mL]	MIC (E. hirae ATCC 10541) [µg/mL]	MIC (E. faecalis ATCC 51299) [µg/mL]	MIC (B. subtilis ATCC 6633) [µg/mL]	MIC (C. diphtheriae) [µg/mL]	MIC (C. albicans ATCC 10231) [µg/mL]	MIC (E. coli ATCC 8739) [µg/mL]	MIC [2] [µg/mL]	IC50 (HeLa cells; [5]) [µg/mL]	Selectivity index (SI) (HeLa cells)	IC50 (SKOV-3 cells) [µg/mL]	Selectivity index (SI) (SKOV-3 cells)	IC50 (MCF-7 cells) [µg/mL]	Selectivity index (SI) (MCF-7 cells)	IC50 (HEK-293 cells) [µg/mL]	IC50 DPPH (DPPH assay) [µg/mL]	IC50 ABTS (ABTS assay) [µg/mL]	IC50 ([3]; MTT) [µg/mL]	IC50 ([3]; µg/mL bound converted) [µM]	other results
Cc1cc(S(=O)(=O)NC(=O)/C=C/c2ccc(Br)cc2)c(SCc2cccc3ccccc23)cc1Cl [Compound 16b, (E)–3–(4–Bromophenyl)–N–{[4–chloro–5–methyl–2–(naphthalen–1–yl)methylthio]phenylsulfonyl}acrylamide]	1 ± 0.29 (≈ 1.7 µM)	1 ± 0.29 (≈ 1.7 µM)	2 ± 0.58 (≈ 3.41 µM)	2 ± 0.58 (≈ 3.41 µM)	62.5 ± 0.29 (≈ 106 µM)	62.5 ± 0.29 (≈ 106 µM)	> 125	> 125	1 to 2 (≈ 1.7 to 3.41 µM)	13.47 ± 0.13 (≈ 22.9 µM)	1.2	16.6 ± 0.69 (≈ 28.3 µM)	0.9	30.7 ± 2.49 (≈ 52.3 µM)	0.5	15.7 ± 1.62 (≈ 26.7 µM)	945.37 ± 0.14 (≈ 1610 µM)	697.68 ± 1.26 (≈ 1190 µM)			hemolysis at 24 h, 31.25 µg/mL (in vitro): 12 to 20%
Cc1cc(S(=O)(=O)NC(=O)/C=C/c2ccc(F)cc2)c(SCc2cccc3ccccc23)cc1Cl [Compound 16c, (E)–N–{4–Chloro–5–methyl–2–[(naphthalen–1–yl)methylthio]phenylsulfonyl}–3–(4–fluorophenyl)acrylamide]	1 ± 0.29 (≈ 1.9 µM)	2 ± 0.58 (≈ 3.8 µM)	2 ± 0.58 (≈ 3.8 µM)	2 ± 0.58 (≈ 3.8 µM)	62.5 ± 0.29 (≈ 119 µM)	> 125	> 125	> 125	1 to 2 (≈ 1.9 to 3.8 µM)	11.2 ± 0.2 (≈ 21.3 µM)	0.7	9.28 ± 1.02 (≈ 17.6 µM)	0.8	11.2 ± 0.08 (≈ 21.3 µM)	0.7	7.67 ± 0.21 (≈ 14.6 µM)	620.47 ± 0.67 (≈ 1180 µM)	622.23 ± 2.25 (≈ 1180 µM)	< 10	≤ 20	
Cc1cc(S(=O)(=O)NC(=O)/C=C/c2ccc(Br)cc2)c(SCc2cc3c(cc2Cl)OCO3)cc1Cl [Compound 17a, (E)-3-(4-Bromophenyl)-N-{4-chloro-2-[(6-chlorobenzo[d][1,3]dioxol-5-yl)methylthio]-5-methylphenylsulfonyl}acrylamide]	1 ± 0.29 (≈ 1.63 µM)	1 ± 0.58 (≈ 1.63 µM)	2 ± 0.58 (≈ 3.25 µM)	2 ± 0.58 (≈ 3.25 µM)	62.5 ± 0.29 (≈ 102 µM)	> 125	> 125	> 125	1 to 2 (≈ 1.63 to 3.25 µM)	< 10	0.8	13.15 ± 0.05 (≈ 21.4 µM)	0.5	13 ± 0.66 (≈ 21.1 µM)	0.5	6.49 ± 0.46 (≈ 10.5 µM)	790.52 ± 1.44 (≈ 1280 µM)	569.99 ± 7.9 (≈ 926 µM)	< 10	≤ 20	MIC [4]: 8 to 16 µg/mL (≈ 13 to 26 µM); IC50 (HeLa cells): 8.49 ± 0.49 µg/mL (≈ 13.8 µM)
